Reference: patent US20210293825A1, “METHODS FOR PRECISION THERAPEUTIC TARGETING OF HUMAN CANCER CELL MOTILITY AND KITS THEREOF” (UNITED STATES GOVERNMENT AS REPRESENTED BY THE DEPARTMENT …, priority 2018, published 2021)

How the values were obtained:
[1] = test system: human prostate cells (PC3, PC3-M, 1532NPTX, 1542NPTX, 1532CPTX, 1542CPTX); assay: Boyden chamber cell invasion assay, human prostate cells; type: cell-based; conditions: 10 μM, 3 days; normal, primary and metastatic PCa cells
From the text: FIG. 1a is a schematic flow of probe synthesis and development strategy. […] Values are mean±SEM of a single experiment in replicates of N=4, with similar findings in multiple separate experiments (also N=4). […] Values are mean±SEM of a single experiment in replicates of N=24, with similar findings in a separate experiment (also N=24). *Denotes Student's t test P value <0.05, compared to controls. […] Values are mean±SEM from N>2 separate experiments, each in replicates of N=3. […] Values are the mean±SD number of total, CFU-GM, CFU-GEMM or BFU-E colonies at 14 days after treatment with KBU2046, from a single experiment in replicates of N=2. […] Values are the mean±SD of a single experiment, with similar results seen in a separate experiment, both in replicates of N=2.
Cell Invasion Assays. Boyden chamber cell invasion assays were performed as previously described^9, using either denatured collagen (BD Biosciences) or type IV human collagen (BD Biosciences), with the experiments repeated, each in N=4 replicates. In some experiments, as indicated, cells were transfected with an expression plasmid, using Lipofectamine 2000™ (Invitrogen), or with siRNA, using DharmaFect Duo (Thermo Scientific) and co-transfected with β-Galactosidase (Plasmid pCMV⋅SPORT-βgal; Life Technology).

NCI 60 cell line panel = NCI 60 cell line panel screening; type: cell-based; conditions: initial screening per DTP protocol
From the text: KBU2046 was submitted to the Developmental Therapeutics Program (DTP) of the US National Cancer Institute (NCI), underwent initial screening across the NCI 60 cell line panel per DTP protocol (Shoemaker, R. H., Nat Rev Cancer 6, 813-23 (2006)) and the resultant COMPARE diagram is depicted herein.

MKK4 [2] = biological target: T1, MKK4 (Homo sapiens, UniProt P45985, S257E/T261E); assay: MKK4 in vitro kinase assay; type: biochemical; conditions: phosphorylation of kinase dead p38a MAPK
T1 sequence (P45985 37-399 S257E/T261E): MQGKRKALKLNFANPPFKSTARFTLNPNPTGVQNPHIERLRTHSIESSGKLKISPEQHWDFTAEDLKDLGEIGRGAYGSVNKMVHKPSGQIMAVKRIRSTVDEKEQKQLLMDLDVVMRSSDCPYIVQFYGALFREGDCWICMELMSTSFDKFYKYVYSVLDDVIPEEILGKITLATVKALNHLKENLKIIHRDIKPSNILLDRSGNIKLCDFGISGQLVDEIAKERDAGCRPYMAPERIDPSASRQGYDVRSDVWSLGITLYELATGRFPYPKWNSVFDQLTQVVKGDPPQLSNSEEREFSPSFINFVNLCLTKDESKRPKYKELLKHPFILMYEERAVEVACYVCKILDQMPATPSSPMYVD
Method: (§1) FIG. 16a is a depiction of established MKK4 pathway regulating human PCa cell metastasis. […] Values are the mean±SD (of N=2 replicates) increase in melting temperature (ΔTm) of purified recombinant MKK4 induced by the indicated concentrations of KBU2046 or genistein. […] The indicated concentrations of KBU2046 were added to recombinant activated MKK4, and its ability to phosphorylate kinase dead p38a MAPK (K53A) was measured by Western blot for total (p38 MAPK) and phosphorylated (pp38 MAPK) forms of p38 MAPK. […] PC3-M cells were pre-treated for 24 hours with 50 μM KBU2046 or genistein, as indicated, then with TGFβ, and Western blot performed. These findings are from a single experiment, with similar findings in identical separate experiments, repeated at least once.
In Vitro Kinase Assays. MEK4/MKK4/MAP2K4 in vitro kinase assay was performed as described (Krishna, S. N. et al., PLoS One 8, e81504 (2013)). HSP90β/CDC37 heterocomplex kinase assays with RAF1, SGK3 and MAP3K6 assays incubated indicated proteins in 20 mM MOPS, pH 7.2, 25 mM β-glycerol phosphate, 5 mM EGTA, 1 mM sodium orthovanadate, 1 mM dithiothreitol, 0.25 mM ATP and 37.5 mM MgCl2 at 30° C. for the indicated times.

MKK4 [3] = biological target: T1, MKK4; assay: Fluorescence-based thermal shift assay, MKK4; type: binding; design: made in house
Method: as §1
Biophysical and Biochemical Binding Assays. Fluorescent thermal shift (Krishna, S. N. et al., PLoS One 8, e81504 (2013)), isothermal titration calorimetry (Chavez, J. D. et al., Mol Cell Proteomics 12, 1451-67 (2013)), and biolayer interferometry assays (Makowska-Grzyska, M. et al., Biochemistry 51, 6148-63 (2012)), were performed using MEK4EE (37-399, S257E, T261E) cloned into pMCSG7 and KRX Competent E. coli cells (Promega Inc.) and full-length HSP90B and CDC37 vectors and Rosetta BL-21 and BL-21 DE-3 competent E. coli cells, respectively. […]

SMILES: O=C1c2ccccc2OCC1c1ccc(F)cc1 (racemic) [KBU2046, (±)-3(4-fluorophenyl)chroman-4-one]
- inhibition of cell invasion [1]: inhibits cell invasion with efficacy equal-to-or-greater-than that of genistein
- cell toxicity (NCI 60 cell line panel): minimal-to-no cell toxicity
- inhibition of MKK4 kinase activity (MKK4 [2]): does not inhibit MKK4
- binding to MKK4 (MKK4 [3]): did not bind to MKK4
